The term half-life denotes the time needed for the level to fall by half in the phase considered. What is called Cmax is the peak of the concentration-time curve. A word on the efflux ratio: it is a quotient of directional permeabilities that is used to spot active efflux. The pIC50 is the IC50 on a negative log10 scale, so that one unit is a factor of ten.

We go through 9 molecules from patent US20260317314A1, “NITROGEN-CONTAINING HETEROCYCLIC COMPOUND AND USE THEREOF” (JIANGSU DEYUAN PHARMACEUTICAL CO.,LTD., priority 2023, published 2026).

pIC50: −log10 of the molar value.

Data set [1] is described as follows: In vivo pharmacokinetic study in cynomolgus monkeys. Details: species or system cynomolgus monkey. To be noted: male cynomolgus monkeys.
Data set [2] can be described thus: Plasma protein binding rate test, SD rat (equilibrium dialysis). The conditions noted are these: 37° C., read-out: Plasma protein binding rate (%) in SD rats (converted). The class given is in vitro ADME. The source says: (§1) The sample was thoroughly mixed.
Data set [3] is described as follows: In vivo pharmacokinetics study in rats. To be noted: male SD rats, oral 2 mg/kg; for AUC(0-t) at 24 h: read-out: AUC0-24 h. On the set-up: species or system SD rat.
Data set [4] can be described thus: Plasma protein binding rate test, human (equilibrium dialysis). The data set is classed as in vitro ADME. To be noted: 37° C.
Source text: as §1
For orientation: In equilibrium dialysis free small molecules cross a membrane that holds back macromolecules.

A short description of data set [5]: Plasma protein binding rate test, cynomolgus monkey (equilibrium dialysis). The data set is classed as in vitro ADME. To be noted: 37° C., read-out: Plasma protein binding rate (%) in cynomolgus monkeys (converted).
Source text: as §1

The nature of data set [6]: Permeability test in MDR1-MDCKII monolayer cell model. To be noted: dog; for efflux ratio at 2.5 h, 2 µM: MDCK-MDR1, pH 7.4, ER=Papp(BA)/Papp(AB); for Papp A→B at 2.5 h, 2 µM: MDCK-MDR1, pH 7.4, pH 7.40, 2.5 hours, 37±1° C., read-out: Apparent permeability coefficient (Papp (AB)). The data set is classed as in vitro ADME. As to the method:
Experimental objective: The permeability and efflux ratio of the compound of the present disclosure were determined using the MDR1-MDCKII monolayer cell model to assess its membrane permeability and potential for P-gp-mediated efflux transport.
Experimental protocol: MDR1-MDCKII cells (obtained from the Netherlands Cancer Institute) were seeded in 96-well plates (obtained from Corning) at a cell density of 3.33×10^5 cells/mL and cultured for 4 to 7 days to form confluent cell monolayers. Hank's balanced salt solution containing 10 mM HEPES (pH 7.40) was used as the transport buffer. The test compound was evaluated for bidirectional transport at a concentration of 2 μM, with the DMSO concentration in the incubation system maintained below 1%. After adding the samples, the cell plate was incubated at 37±1° C., 5% CO2, and saturated humidity for 2.5 hours. All samples were quantitatively analyzed using the LC-MS/MS method. The apparent permeability coefficient (Papp, cm/s) and efflux ratio (ER) were calculated using the following formula. Apparent permeability coefficient (Papp, cm/s) was calculated using the following formula: Papp=(dCr/dt)×Vr/(A×C0). Herein, dCr/dt represents the cumulative concentration of the compound at the receiving end per unit time (μM/s); Vr is the volume of the solution at the receiving end (with solution volumes at the apical and basolateral ends being 0.075 mL and 0.250 mL, respectively); A is the relative surface area of the cell monolayer (0.143 cm^2); C0 is the initial concentration of the test substance at the dosing end (μM) or the peak area ratio of the reference substance. The efflux ratio was calculated using the following formula: ER=Papp(BA)/Papp(AB).

Data set [7] is described as follows: In vitro liver microsome metabolic stability study. The data set is classed as in vitro ADME. The conditions noted are these: human liver microsomes 0.5 mg/mL, compound 1 μM, 37° C., up to 60 minutes; read-out: Intrinsic hepatic clearance CLint(liver). The protocol: Stock solution: 10 mM in DMSO.
Only 54 μL of microsomal working solution, 6 μL of NADPH regeneration system working solution, and 180 μL of stop solution were added to the blank plate.
LC-MS/MS analysis was performed.
On the technique in general: Microsomes from liver hold many membrane-bound enzymes, among them those of drug oxidation.

For data set [8], the system named is plasma protein. Briefly: Plasma protein binding rate test, human (equilibrium dialysis). The class given is in vitro ADME. To be noted: 37° C., 4 hours.
Source text: as §1

The test system of data set [9] is plasma protein. Briefly: Plasma protein binding rate test, cynomolgus monkey (equilibrium dialysis). The data set is classed as in vitro ADME. The conditions noted are these: 37° C., 4 hours.
Source text: as §1

The target in data set [10] is T1, human CYP11B2 (Homo sapiens, UniProt P19099).
T1 construct: expressed in transfected cells; host or cells: human renal leiomyoma G402 cell line (monoclonal cells overexpressing human CYP11B2)
T1 sequence (P19099 25-503): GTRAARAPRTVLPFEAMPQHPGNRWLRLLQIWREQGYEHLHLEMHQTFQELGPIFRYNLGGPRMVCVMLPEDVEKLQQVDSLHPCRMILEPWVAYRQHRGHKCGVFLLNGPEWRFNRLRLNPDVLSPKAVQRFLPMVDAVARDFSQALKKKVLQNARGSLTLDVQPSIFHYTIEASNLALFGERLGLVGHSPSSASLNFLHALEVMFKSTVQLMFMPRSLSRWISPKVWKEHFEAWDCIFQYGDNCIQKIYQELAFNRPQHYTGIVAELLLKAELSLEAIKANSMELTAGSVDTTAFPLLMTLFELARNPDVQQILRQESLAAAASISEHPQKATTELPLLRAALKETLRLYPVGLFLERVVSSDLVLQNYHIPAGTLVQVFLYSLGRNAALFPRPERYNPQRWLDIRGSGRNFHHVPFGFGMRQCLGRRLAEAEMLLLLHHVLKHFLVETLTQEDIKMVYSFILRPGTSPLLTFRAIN
Nature of the data set: In vitro activity assay of monoclonal cells overexpressing human CYP11B2. The data set is classed as cell-based. To be noted: G402 cells overexpressing human CYP11B2; substrate 11-deoxycorticosterone; 16 hours; aldosterone by LCMS/MS. The protocol:
The human renal leiomyoma G402 cell line overexpressing human CYP11B2 was selected to serve as a compound activity screening system.
• 2) Compound details: The test compound was prepared as a 10 μM working concentration using DMSO.
Day 1: Cells were digested, and human renal leiomyoma G402 cells overexpressing human CYP11B2 were resuspended to 1×10^5 cells/mL, with 100 μL seeded into a 96-well plate.
Day 2: The medium was replaced with DMEM/F12 containing 2.5% charcoal-stripped fetal bovine serum; test compounds were added: 5 μL of test compound was added to the cell culture medium to achieve final concentrations of 10000, 2500, 625, 156.25, 39.06, 9.77, 2.44, 0.61, 0.15, and 0 nM (with a DMSO content of 0.1%).
After one hour, the substrate was added: 30 mM 11-deoxycorticosterone was diluted 1500-fold with culture medium, and 5 μL was dispensed per well to achieve a final concentration of […], followed by incubation for 16 hours.
Day 3: The cell supernatant was collected and added to 200 μL of a methanol solution containing internal standards (internal standards: 35 ng/mL ketoprofen or 7.5 ng/mL carbamazepine or 5 ng/mL diphenhydramine or 10 ng/mL tolbutamide). The mixture was vortexed and centrifuged (4000×g, 4° C., 5 minutes). Then, 100 μL of the supernatant was taken and mixed with 100 μL of pure water. The mixture was centrifuged (4000 g, 4° C., 15 min), and the supernatant was analyzed by ESI-LCMS/MS. • 4) Data analysis:
Ratio=Aldosterone peak area/Internal standard peak area
Control activity %=(Ratio test compound/Ratio DMSO)×100%
“Ratio test compound” represents the Ratio values at different concentrations of the test compound.
“Ratio DMSO” represents the Ratio value without the addition of the test compound. • X=Log (compound concentration) • Y=Control activity %
The IC50 of the test compound was determined by fitting to a nonlinear regression equation using XLfit 5.5.0.

The subject of data set [11] is patients with refractory hypertension. To be noted: cited from earlier work.
[12] abbreviates: cynomolgus monkey, plasma, oral 3 mg/kg.
[13] abbreviates: 2 mg dose, patients with refractory hypertension.

`CCC(=O)N[C@@H]1CCCc2c(-c3ccc4c(ccc(=O)n4C)c3)cncc21` (single isomer, unassigned) [Compound 001]: the bioavailability in data set [1] (setting [12]) turned out to be 120%; in [3] (rat, plasma) it was 80%. Besides, the half-life in [1] (setting [12]) was 4.99 h; in data set [3] (rat, plasma), 4.61 h. Also, the Cmax in data set [1] (cynomolgus monkey, oral 3 mg/kg, plasma) was 4 µM; in [3] (rat, plasma), 7.63 µM. For the same molecule, the AUC(0-t) at 24 h in data set [1] (cynomolgus monkey, oral 3 mg/kg, plasma, read-out: AUC0-24 h) turned out to be 23.2 µM·h; in data set [3] (rat, plasma), 59.1 µM·h. Further, the fraction unbound at 4 h in data set [2] was 0.079; in [4] it was 0.239; in [5], 0.254. In data set [6], the efflux ratio at 2.5 h, 2 µM is 1.76. Also, the Papp A→B at 2.5 h, 2 µM in data set [6] is 17.2 ×10⁻⁶ cm/s. The CLint scaled at 1 µM in [7] is below 8.6 mL/min/kg.
As to `CCC(=NOC)NC1CCCc2c(-c3ccc4c(c3)CCC(=O)N4C)cncc21` (single isomer, unassigned) [Compound 005], the fraction unbound at 4 h in data set [2] is 0.102. Moreover, in [3] (rat, plasma), the bioavailability came to 111%, the half-life is 2.77 h, the Cmax worked out at 1.31 µM and the AUC(0-t) at 24 h is 7.8 µM·h. In data set [4], this molecule gave a fraction unbound at 4 h of 0.106. Further, in [5], the fraction unbound at 4 h was 0.127. Moreover, in data set [6], the efflux ratio at 2.5 h, 2 µM turned out to be 0.7 and the Papp A→B at 2.5 h, 2 µM is 23.1 ×10⁻⁶ cm/s.
With `Cc1noc(C)c1C(=O)N[C@@H]1CCCc2c(-c3cc4ccc(=O)n(C)c4cc3F)cncc21` (single isomer, unassigned) [Compound 020], the “Human plasma protein binding rate (%)” value in data set [8] was found to be 85.6%. In addition, the “Plasma protein binding rate (%) in cynomolgus monkeys” value in data set [9] was determined as 90.3%.
In data set [1] (oral 1 mg/kg), `CCC(=O)NC1CCCc2c(-c3cc4ccc(=O)n(C)c4s3)cncc21` (single isomer, unassigned) [Compound 023] showed an F of 76.5% and a T1/2 of 4.80 h. Besides, in [1] (oral 1 mg/kg, plasma), the AUC0-24 h was 8.916 µM·h and the concentration peaked (Cmax) at 1.32 µM. In addition, in data set [3], the F stood at 109% and the T1/2 is reported as 3.6 h. For the same molecule, in data set [3] (plasma), the AUC0-24 h came out at 44.234 µM·h and the Cmax came out at 6.92 µM. Besides, in data set [8], the “Human plasma protein binding rate (%)” value came out at 69.6%. In addition, in [9], the “Plasma protein binding rate (%) in cynomolgus monkeys” value came out at 69.0%.
Molecule `CCC(=O)N[C@@H]1CCCc2c(-c3ccc4c(c3)c(C)cc(=O)n4C)cncc21` (single isomer, unassigned) [Compound 027] gave a pIC50 in data set [10] of 7.20.
Take `CCC(=O)NC1CCCc2c(-c3cc(F)c4c(c3)OCC(=O)N4C)cncc21` (single isomer, unassigned) [Compound 031]: the fraction unbound at 4 h in [4] was 0.193. The fraction unbound at 4 h in data set [5] is 0.203. In data set [6], the efflux ratio at 2.5 h, 2 µM was determined as 0.89 and the Papp A→B at 2.5 h, 2 µM stood at 20 ×10⁻⁶ cm/s. Besides, the CLint scaled at 1 µM in data set [7] was below 8.6 mL/min/kg.
The corresponding values for `CCC(=O)NC1CCCc2c(-c3cc4c(cc3F)N(C)C(=O)CO4)cncc21` (single isomer, unassigned) [Compound 032] are 0.151, 0.205, 0.86, 22.6 ×10⁻⁶ cm/s and below 8.6 mL/min/kg.
Regarding `CCC(=O)NC1CCOc2c(-c3cc4ccc(=O)n(C)c4s3)cncc21` (single isomer, unassigned) [Compound 045], the fraction unbound at 4 h in data set [4] is 0.239. In addition, in [5], the fraction unbound at 4 h was 0.32. In data set [6], the efflux ratio at 2.5 h, 2 µM worked out at 1.3 and the Papp A→B at 2.5 h, 2 µM turned out to be 16.7 ×10⁻⁶ cm/s.
For `CCC(=O)N[C@@H]1CCCc2c(-c3ccc4c(c3)CCC(=O)N4C)cncc21` [Baxdrostat], in data set [11] (setting [13]), the “office systolic and diastolic blood pressure” value was “efficacy in reducing office systolic and diastolic blood pressure”; the safety and tolerability entry was “favorable safety and tolerability profiles”. In [11] (clinical studies), the aldosterone secretion levels result is “dose-dependent reduction” and the blood pressure result is recorded as “dose-dependent reduction”. Besides, in data set [11] (phase 2 trials), the blood pressure reduction result is “significant blood pressure reduction”, the cortisol levels result is given as “no impact on cortisol levels”, the elevated blood potassium result is reported as “rare occurrence of elevated blood potassium” and the steroid precursor accumulation entry is “absence of steroid precursor accumulation”.
